Five molecules from patent US11078202B2, “β-lactamase inhibitor and use thereof” (priority 2018, dated 2021) can be followed below.

Structures can show the parent of a compound that is named as a salt.

Holding throughout (assay type): cell-based
Experiment [1] deals with Acinetobacter baumannii XNWB 0007. The experiment can be described thus: MIC assay of test compounds combined with imipenem (4 μg/mL). The conditions noted are these: imipenem 4 μg/mL fixed. The method, then:
(§1) The bacterial strains used for the minimum inhibitory concentration (MIC) test were frozen in a −80° C. ULT freezer and thawed 2 days before use. A small amount of frozen bacterial strains were scraped using a sterile inoculating loop, streaked onto a TSA solid culture dish for inoculation, and then cultured for 20-24 h at 35±2° C. in a normal atmospheric environment. 5-10 colonies with similar morphology were picked from the culture dish using a sterile inoculating loop and then re-streaked onto a suitable solid culture dish. Then the dish was placed into a normal incubator for culture for 20-24 h at 35±2° C. 5-10 single bacterial colonies were picked from the solid culture dish, resuspended in 500 μL of 0.9% NaCl, and adjusted to an OD600 of 0.1-0.15 with a spectrophotometer. The bacteria were then diluted 300-fold with 1.1×CAMHB. […] Dilution of test compounds: […] 2 μL of each compound in the dilution master plate of the test compounds was transferred to the corresponding well of the assay plates. In the mean time, 2 μL of 100% DMSO was transferred to the compound-free wells (GC and SC wells). (1) 8 μL of imipenem in the additive plate of imipenem was transferred to the corresponding wells of the assay plates; (2) 8 μL of ceftazidime in the additive plate of ceftazidime was transferred to the corresponding wells of the assay plates; (3) 8 μL of ampicillin in the additive plate of ampicillin was transferred to the corresponding wells of the assay plates. 90 μL of corresponding bacterial inocula were added to wells (except for SC wells) of the assay plates. After addition, the 6 assay plates were covered by sterile covers. The mixtures in the assay plates were centrifuged by a centrifuge at 1000 rpm for 30 s, and mixed uniformly by oscillating with a microplate oscillator at 800 rpm for 1 min, and then cultured in a common incubator for 16-20 h at 35±2° C. The minimum inhibitory concentration of each compound was recorded by reference to guidelines from the Clinical and Laboratory Standards Institute. […] The effect of the test compounds in combination with imipenem, ceftazidime, and ampicillin was also tested. […] The bacterial inocula in the assay plates were resuscitated from TSA and diluted in CAMHB, while growth controls (GC wells) and sterile controls (SC wells) were set up in the assay plates. The minimum inhibitory concentration of each compound combination against different bacteria was observed and recorded after the assay plates were incubated in a common incubator at 35±2° C. for 16-20 h, and the results are shown in Tables 1-3.

Experiment [2] relates to Klebsiella pneumoniae XNWB 0005. Described as above. The conditions noted are these: imipenem 4 μg/mL fixed. How it is done: as §1
Experiment [3] deals with Klebsiella pneumoniae XNWB 0004. Described as above. The conditions noted are these: imipenem 4 μg/mL fixed. How it is done:
as §1

In experiment [4] the test system is Klebsiella pneumoniae XNWB 0002. The experiment is described as above. The conditions noted are these: imipenem 4 μg/mL fixed. The method, then: as §1
The subject of experiment [5] is Klebsiella pneumoniae XNWB 0006. The experiment is described as above. The conditions noted are these: imipenem 4 μg/mL fixed. How it is done:
as §1

The test system of experiment [6] is Pseudomonas aeruginosa XNWB 0008. The description is as above. Particulars: imipenem 4 μg/mL fixed. The method, then: as §1
Experiment [7] has as its system Klebsiella pneumoniae XNWB 0001. Described as above. Particulars: imipenem 4 μg/mL fixed. The method, then:
as §1

In experiment [8] the test system is Klebsiella pneumoniae XNWB 0003. Described as above. Particulars: imipenem 4 μg/mL fixed. How it is done: as §1
Experiment [9] relates to Acinetobacter baumannii XNWB 0007. As to the kind of experiment: MIC assay of test compounds combined with ceftazidime (8 μg/mL). The conditions noted are these: ceftazidime 8 μg/mL fixed. The method, then:
as §1

Experiment [10] relates to Klebsiella pneumoniae XNWB 0005. Described as above. The conditions noted are these: ceftazidime 8 μg/mL fixed. The method, then: as §1
Experiment [11] has as its system Klebsiella pneumoniae XNWB 0004. Described as above. Particulars: ceftazidime 8 μg/mL fixed. The method, then:
as §1

Experiment [12] relates to Klebsiella pneumoniae XNWB 0002. The description is as above. The conditions noted are these: ceftazidime 8 μg/mL fixed. The method, then: as §1
Experiment [13] relates to Klebsiella pneumoniae XNWB 0006. The description is as above. Particulars: ceftazidime 8 μg/mL fixed. How it is done:
as §1

In experiment [14] the test system is Pseudomonas aeruginosa XNWB 0008. The experiment is described as above. The conditions noted are these: ceftazidime 8 μg/mL fixed. The method, then:
as §1

For experiment [15], the system named is Klebsiella pneumoniae XNWB 0001. Described as above. Particulars: ceftazidime 8 μg/mL fixed. How it is done: as §1
Experiment [16] deals with Klebsiella pneumoniae XNWB 0003. The experiment is described as above. Particulars: ceftazidime 8 μg/mL fixed. How it is done:
as §1

Regarding `N=C(N)NC[C@H](O)c1nnc([C@@H]2CC3(CC3)[C@@H]3CN2C(=O)N3OS(=O)(=O)O)o1` [Example 12, (1R,4S)-4-(5-((S)-2-guanidyl-1-hydroxyethyl)-1,3,4-oxadiazol-2-yl)-6-oxo-5,7-diazaspiro[bicyclo[3.2.1]octane-2,1′-cyclopropan]-7-yl sulfate], the “The minimum concentration of test compounds combined with imipenem (4 μg/mL) for bacteriostasis” value is “B (B: 8-16 μg/mL)” in [1]; “A (A: <8 μg/mL)” in experiment [2]; “A (A: <8 μg/mL)” in experiment [3]; “A (A: <8 μg/mL)” in experiment [4]; “A (A: <8 μg/mL)” in experiment [5]; “B (B: 8-16 μg/mL)” in experiment [6]. In addition, the “The minimum concentration of test compounds combined with imipenem (4 μg/mL) for bacteriostasis” value in experiment [7] and in experiment [8] was “A (A: <8 μg/mL)” throughout. For the same molecule, the “The minimum concentration of test compounds combined with ceftazidime (8 μg/mL) for bacteriostasis” value in experiment [9] was “C (C: 16-128 μg/mL)”; in experiment [10], “A (A: <8 μg/mL)”; in [11], “B (B: 8-16 μg/mL)”; in [12] it was “A (A: <8 μg/mL)”; in experiment [13], “A (A: <8 μg/mL)”; in experiment [14] it was “C (C: 16-128 μg/mL)”. Moreover, the “The minimum concentration of test compounds combined with ceftazidime (8 μg/mL) for bacteriostasis” value in [15] is given as “B (B: 8-16 μg/mL)”; in experiment [16] it was “A (A: <8 μg/mL)”.

On to `O=C1N2C[C@H](N1OS(=O)(=O)O)C1(CC1)C[C@H]2c1nnco1` [Example 1, (1R,4S)-4-(1,3,4-oxadiazol-2-yl)-6-oxo-5,7-diazaspiro[bicyclo[3.2.1]octane-2,1′-cyclopropan]-7-yl sulfate], for which the “The minimum concentration of test compounds combined with imipenem (4 μg/mL) for bacteriostasis” value is on record as “C (C: 16-128 μg/mL)” in experiment [1]; “A (A: <8 μg/mL)” in experiment [2]; “A (A: <8 μg/mL)” in [3]; “A (A: <8 μg/mL)” in experiment [4]; “A (A: <8 μg/mL)” in [5]; “C (C: 16-128 μg/mL)” in [6]. Moreover, the “The minimum concentration of test compounds combined with imipenem (4 μg/mL) for bacteriostasis” value in experiment [7] and in [8] was “A (A: <8 μg/mL)” in each case. Also, the “The minimum concentration of test compounds combined with ceftazidime (8 μg/mL) for bacteriostasis” value in experiment [9] is given as “C (C: 16-128 μg/mL)”; in [10], “A (A: <8 μg/mL)”; in [11], “B (B: 8-16 μg/mL)”; in [12] it was “A (A: <8 μg/mL)”; in experiment [13], “A (A: <8 μg/mL)”; in [14], “C (C: 16-128 μg/mL)”. Also, the “The minimum concentration of test compounds combined with ceftazidime (8 μg/mL) for bacteriostasis” value in [15] and in [16] was “A (A: <8 μg/mL)” throughout.

Consider `N=C(N)NCCNCCc1cc([C@@H]2CC3(CC3)[C@@H]3CN2C(=O)N3OS(=O)(=O)O)no1` [Example 53, (1R,4S)-4-(5-(2-((2-guanidinoethyl)amino)ethyl)isoxazol-3-yl)-6-oxo-5,7-diazaspiro [bicyclo[3.2.1]octane-2,1′-cyclopropan]-7-yl sulfate], for which the “The minimum concentration of test compounds combined with imipenem (4 μg/mL) for bacteriostasis” value in experiment [1] was “C (C: 16-128 μg/mL)”; in experiment [2], “A (A: <8 μg/mL)”; in experiment [3] it was “A (A: <8 μg/mL)”; in experiment [4], “A (A: <8 μg/mL)”; in [5] it was “A (A: <8 μg/mL)”; in experiment [6], “A (A: <8 μg/mL)”. The “The minimum concentration of test compounds combined with imipenem (4 μg/mL) for bacteriostasis” value in experiment [7] and in [8] was “A (A: <8 μg/mL)” throughout. Further, the “The minimum concentration of test compounds combined with ceftazidime (8 μg/mL) for bacteriostasis” value in experiment [9] is listed as “C (C: 16-128 μg/mL)”; in experiment [10], “A (A: <8 μg/mL)”; in experiment [11], “B (B: 8-16 μg/mL)”; in experiment [12], “A (A: <8 μg/mL)”; in experiment [13], “A (A: <8 μg/mL)”; in [14], “B (B: 8-16 μg/mL)”. Moreover, the “The minimum concentration of test compounds combined with ceftazidime (8 μg/mL) for bacteriostasis” value in [15] and in experiment [16] was “A (A: <8 μg/mL)” throughout.

Take `NC[C@H](O)c1nnc([C@@H]2CC3(CC3)[C@@H]3CN2C(=O)N3OS(=O)(=O)O)o1` [Example 62, (1R,4S)-4-(5-((S)-2-amino-1-hydroxyethyl)-1,3,4-oxadiazol-2-yl)-6-oxo-5,7-diazaspiro[bicyclo[3.2.1]octane-2,1′-cyclopropane]-7-yl hydrogen sulfate]: the “The minimum concentration of test compounds combined with imipenem (4 μg/mL) for bacteriostasis” value is “A (A: <8 μg/mL)” in experiment [1]; “A (A: <8 μg/mL)” in experiment [2]; “A (A: <8 μg/mL)” in experiment [3]; “A (A: <8 μg/mL)” in [4]; “A (A: <8 μg/mL)” in experiment [5]; “B (B: 8-16 μg/mL)” in [6]. Besides, the “The minimum concentration of test compounds combined with imipenem (4 μg/mL) for bacteriostasis” value in experiment [7] and in [8] was “A (A: <8 μg/mL)” each time.

Turning to `NC[C@@H](O)c1nnc([C@@H]2CC3(CC3)[C@@H]3CN2C(=O)N3OS(=O)(=O)O)o1` [Example 61], the “The minimum concentration of test compounds combined with imipenem (4 μg/mL) for bacteriostasis” value in experiment [1] is recorded as “B (B: 8-16 μg/mL)”; in experiment [2], “A (A: <8 μg/mL)”; in experiment [3], “A (A: <8 μg/mL)”; in experiment [4], “A (A: <8 μg/mL)”; in experiment [5], “A (A: <8 μg/mL)”; in experiment [6], “B (B: 8-16 μg/mL)”. Besides, the “The minimum concentration of test compounds combined with imipenem (4 μg/mL) for bacteriostasis” value in [7] and in [8] was “A (A: <8 μg/mL)” in each case.
